Data taken from US6855730B2, “3-methylidenyl-2-indolinone modulators of protein kinase” (Sugen, Inc., priority 1998, dated 2005).

How the values were obtained:
[1] = biological target: Myc-GyrB-FGFR fusion protein (Homo sapiens, UniProt P11362); assay: Biochemical FGFR assay (ELISA); settings: read-out: bio fgfR1 IC50
human flk-1 = biological target: T1, human flk-1 (Homo sapiens, UniProt P35968); assay: Biochemical FLK-1 assay (flk-1 autophosphorylation ELISA); settings: read-out: bio FLK1 IC50 (μM) % if inhibition at 100
T1 construct: host or cells: Flk-1/NIH cells (NIH fibroblasts)
T1 sequence (P35968 20-1356): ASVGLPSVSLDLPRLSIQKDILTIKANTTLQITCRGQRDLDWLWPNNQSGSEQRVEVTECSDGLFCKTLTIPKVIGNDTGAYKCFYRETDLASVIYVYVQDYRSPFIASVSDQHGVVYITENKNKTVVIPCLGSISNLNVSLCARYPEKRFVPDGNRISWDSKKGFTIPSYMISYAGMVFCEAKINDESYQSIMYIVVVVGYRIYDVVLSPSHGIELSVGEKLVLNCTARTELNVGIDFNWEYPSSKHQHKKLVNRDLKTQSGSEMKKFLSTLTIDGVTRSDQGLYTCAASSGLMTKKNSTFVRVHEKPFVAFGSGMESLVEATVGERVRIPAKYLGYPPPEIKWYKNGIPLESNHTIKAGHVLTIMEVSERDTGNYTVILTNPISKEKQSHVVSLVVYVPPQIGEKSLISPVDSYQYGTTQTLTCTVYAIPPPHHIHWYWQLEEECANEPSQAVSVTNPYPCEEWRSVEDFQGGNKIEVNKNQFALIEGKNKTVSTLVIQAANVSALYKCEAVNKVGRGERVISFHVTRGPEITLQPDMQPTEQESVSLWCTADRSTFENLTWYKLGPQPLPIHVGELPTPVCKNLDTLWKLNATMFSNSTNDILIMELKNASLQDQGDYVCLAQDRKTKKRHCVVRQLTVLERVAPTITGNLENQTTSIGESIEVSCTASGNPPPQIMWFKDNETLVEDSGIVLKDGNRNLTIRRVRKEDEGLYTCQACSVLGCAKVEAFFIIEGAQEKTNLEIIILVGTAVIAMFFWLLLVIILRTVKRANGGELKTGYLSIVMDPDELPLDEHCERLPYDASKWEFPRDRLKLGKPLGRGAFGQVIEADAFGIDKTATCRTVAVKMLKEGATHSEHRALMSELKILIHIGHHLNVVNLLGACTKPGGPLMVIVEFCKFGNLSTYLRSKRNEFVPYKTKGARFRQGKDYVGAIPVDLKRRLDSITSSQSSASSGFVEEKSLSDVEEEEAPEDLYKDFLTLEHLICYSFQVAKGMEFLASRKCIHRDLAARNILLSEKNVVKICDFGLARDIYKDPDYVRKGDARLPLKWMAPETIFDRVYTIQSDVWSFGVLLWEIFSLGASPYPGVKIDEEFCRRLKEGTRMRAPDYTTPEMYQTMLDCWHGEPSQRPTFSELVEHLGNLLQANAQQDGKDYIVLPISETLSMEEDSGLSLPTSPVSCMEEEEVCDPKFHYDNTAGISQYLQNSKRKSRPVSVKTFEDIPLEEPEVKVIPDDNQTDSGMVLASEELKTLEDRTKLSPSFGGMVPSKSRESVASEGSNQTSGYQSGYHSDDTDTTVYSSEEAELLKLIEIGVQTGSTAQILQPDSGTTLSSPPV
Procedure: This assay evaluates flk-1 autophosphorylation activity in vitro using ELISA.
Materials And Reagents • 1. 15 cm tissue culture dishes • 2. Flk-1/NIH cells: NIH fibroblast line over-expressing human flk-1clone 3 (SUGEN, Inc., obtained from MPI, Martinsried, Germany). • 3. Growth medium: DMEM plus heat inactivated 10% FBS and 2 mM Glutamine (Gibco-BRL). • 4. Starvation medium: DMEM plus 0.5% heat-inactivated FBS, 2 mM Glutamine (Gibco-BRL). • 5. […] L4 or E38 monoclonal antibody specific for flk-1, Purified by Protein-A agarose affinity chromatography (SUGEN, Inc.). • 7. PBS (Dulbecco's Phosphate-Buffered Saline) Gibco Cat. No. 450-1300EB). • 8. HNTG (see BIOCHEMICAL FGFR for preparation). • 9. Pierce BCA protein determination kit. • 10. Blocking buffer • 11. TBST (pH 7.0) • 12. Kinase Buffer • 13. Kinase Stop Solution: 200 mM EDTA. • 14. […] AB kit (Vector Laboratories Cat. No. PK 4000). • 16. DMSO • 17. NUNC 96-well V bottom polypropylene plates (Applied Scientific Cat. No. AS-72092). • 18. Turbo-TMB (Pierce). • 19. Turbo-TMB stop solution: 1 M H2SO4. • 20. ATP (Sigma Cat. No. A-7699). • 21. 20% DMSO in TBS (pH 7.0). Procedure
Cell Growth and Lysate Preparation. • 1. Seed cell into growth medium and grow for 2-3 days to 90-100% confluency at 37° C. and 5% CO2.
2. Remove the medium and wash the cells twice with PBS. Lyse with HNTG lysis buffer. Collect all lysates and vortex mix them for 20-30 seconds. • 3. Remove insoluble material by centrifugation (5-10 min at about 10,000 ×g). • 4. Determine the protein concentration using BCA kit. • 5. Partition lysate into 1 mg aliquots, store at −80° C.
Assay Procedure • 1. Coat Corning 96-well ELISA plates with 2 μg/well purified L4 (or E 38) in 100 μl of PBS. Store overnight at […] • 2. Remove unbound proteins from wells by inverting the plate to remove the liquid. Wash one time with dH2O, pat plate on paper towel to remove excess liquid. • 3. Block plates with 150 μl blocking buffer per well. Incubate for 45-60 minutes with shaking at 4° C. • 4. Remove the blocking buffer and wash the ELISA plate three times with dH2O and one time with TBST. Pat plate on paper towel to remove excess liquid. • 5. Dilute lysate in PBS to give final concentration of 50 μg/100 μl. Add 100 μl of diluted lysate to each well. Incubate with shaking at 4° C. overnight. • 6. Remove unbound proteins from wells by inverting the plate. Wash as in step 4. • 7. Add 80 μl of kinase buffer to wells (90 μl to negative control wells). • 8. Dilute test compounds (normally 10-fold) into wells of a polypropylene plate containing 20% DMSO in TBS. • 9. Add 10 μl of the diluted compounds to the ELISA wells containing immobilized flk-1 and shake. Control wells receive no compounds. • 10. From stock 1 mM ATP, prepare 0.3 mM ATP solution in dH2O (alternatively, kinase buffer may be used). • 11. Add 10 μl of 0.3 mM ATP to all wells except the negative controls. Incubate for 60 min. at room temperature with shaking. • 12. After 1 hr stop the kinase reaction by adding 11 μl 200 mM EDTA. Shake for 1-2 min. • 13. Wash the ELISA plate 4 times with dH2O and twice with TBST. • 14. Add 100 μl of 1:5000 biotinylated 4G10:TBST to all wells. Incubate 45 min with shaking at room temperature. • 15. While the above is incubating, add 50 μl of solutions A & B from the ABC kit to 10 ml of TBST. These solutions must be combined approximately 30 min prior to use. • 16. Wash plates as in step 4. • 17. Add 100 μl of the preformed A & B complex to all wells. Incubate 30 min with shaking at room temperature. • 18. Wash plates as in step 4. • 19. Add 100 μl turbo-TMB. Shake at room temperature for 10-15 min. • 20. When the color in the positive control wells reaches an absorbance of about 0.35-0.4, stop the reaction with 100 μl of turbo-TMB stop solution. • 21. Read plates on Dynatech MR7000 ELISA reader, test filter: 450 nM, reference filter: 410 nM.

PDGFR-β = biological target: T2, PDGFR-β (Homo sapiens, UniProt P09619); assay: Biochemical PDGFR assay (ELISA, PDGFR-β expressing NIH 3T3 cell lysate); settings: read-out: bio PDGF IC50
T2 construct: host or cells: NIH 3T3
T2 sequence (P09619 33-1106): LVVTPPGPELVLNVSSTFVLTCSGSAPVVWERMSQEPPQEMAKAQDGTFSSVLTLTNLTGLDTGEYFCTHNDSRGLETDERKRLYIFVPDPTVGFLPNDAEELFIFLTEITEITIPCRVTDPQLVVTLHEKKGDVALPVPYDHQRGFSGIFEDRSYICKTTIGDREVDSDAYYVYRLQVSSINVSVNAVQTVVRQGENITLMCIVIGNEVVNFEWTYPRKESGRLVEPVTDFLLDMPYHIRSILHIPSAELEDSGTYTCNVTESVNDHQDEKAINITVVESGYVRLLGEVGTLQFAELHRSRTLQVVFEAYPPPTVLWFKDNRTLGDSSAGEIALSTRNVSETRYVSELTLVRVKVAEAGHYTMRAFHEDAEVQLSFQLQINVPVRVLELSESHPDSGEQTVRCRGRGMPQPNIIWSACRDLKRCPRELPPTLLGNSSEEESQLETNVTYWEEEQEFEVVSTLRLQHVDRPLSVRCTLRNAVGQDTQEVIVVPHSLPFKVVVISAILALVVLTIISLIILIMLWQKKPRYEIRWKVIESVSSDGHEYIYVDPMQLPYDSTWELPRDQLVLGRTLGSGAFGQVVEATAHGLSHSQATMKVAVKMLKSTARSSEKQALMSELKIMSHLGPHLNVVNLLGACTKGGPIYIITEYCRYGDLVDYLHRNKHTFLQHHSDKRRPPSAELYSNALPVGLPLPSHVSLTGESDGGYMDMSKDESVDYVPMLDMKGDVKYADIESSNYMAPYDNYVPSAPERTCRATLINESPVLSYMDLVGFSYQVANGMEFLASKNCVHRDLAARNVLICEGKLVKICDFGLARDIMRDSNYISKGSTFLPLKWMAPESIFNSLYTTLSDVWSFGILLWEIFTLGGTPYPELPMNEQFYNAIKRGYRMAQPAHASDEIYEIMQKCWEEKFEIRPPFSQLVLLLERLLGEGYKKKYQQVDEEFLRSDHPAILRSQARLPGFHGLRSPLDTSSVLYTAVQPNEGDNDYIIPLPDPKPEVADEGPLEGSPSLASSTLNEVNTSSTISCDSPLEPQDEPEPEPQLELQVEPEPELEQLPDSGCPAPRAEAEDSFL
Outline: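 PDGFR-β from NIH 3T3 cell lysate captured on anti-PDGFR (28D4C10)-coated plates; compound preincubated 30 min, then 20 μM ATP kinase reaction 30 min at room temperature, stopped with EDTA. Phosphotyrosine detected by anti-phosphotyrosine antibody, peroxidase conjugate and ABTS/H2O2, read at 410 nm.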

flkGST = biological target: T3, flkGST (Homo sapiens, UniProt P35968); assay: bio flkGST assay; type: biochemical
T3 construct: GST
T3 sequence (P35968 786-1356 limits assumed): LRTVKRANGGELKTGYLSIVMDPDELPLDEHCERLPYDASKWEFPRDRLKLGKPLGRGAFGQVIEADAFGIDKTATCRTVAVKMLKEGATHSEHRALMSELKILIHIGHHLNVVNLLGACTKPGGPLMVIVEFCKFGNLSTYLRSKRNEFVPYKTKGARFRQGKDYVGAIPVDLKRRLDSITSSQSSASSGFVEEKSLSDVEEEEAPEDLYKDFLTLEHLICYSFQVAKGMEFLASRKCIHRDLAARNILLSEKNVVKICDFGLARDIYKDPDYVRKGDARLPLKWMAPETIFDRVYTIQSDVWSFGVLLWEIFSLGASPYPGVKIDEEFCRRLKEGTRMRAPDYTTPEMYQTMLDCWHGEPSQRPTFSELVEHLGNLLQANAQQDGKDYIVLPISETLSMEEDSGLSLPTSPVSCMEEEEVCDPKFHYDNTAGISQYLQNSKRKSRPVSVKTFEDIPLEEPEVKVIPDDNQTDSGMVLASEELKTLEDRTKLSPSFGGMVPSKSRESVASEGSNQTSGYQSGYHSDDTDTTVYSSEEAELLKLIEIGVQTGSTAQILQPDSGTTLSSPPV

Chain of Myc-GyrB-FGFR fusion protein (P11362 478-767 limits assumed): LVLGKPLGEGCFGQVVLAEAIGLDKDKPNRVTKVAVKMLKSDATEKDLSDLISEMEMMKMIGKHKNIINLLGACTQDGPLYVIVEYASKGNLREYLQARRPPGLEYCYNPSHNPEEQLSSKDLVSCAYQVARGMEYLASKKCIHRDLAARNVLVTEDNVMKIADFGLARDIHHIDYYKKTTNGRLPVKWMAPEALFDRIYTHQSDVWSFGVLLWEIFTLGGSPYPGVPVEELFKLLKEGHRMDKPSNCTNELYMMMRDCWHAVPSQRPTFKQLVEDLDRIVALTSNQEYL

| IC50 [1] [nM] | IC50 (human flk-1) [µM] | IC50 (PDGFR-β) [nM] | IC50 (flkGST) [nM] | Structure (SMILES) |
| --- | --- | --- | --- | --- |
| 5270 | 1.53 | 2720 | 120 | Nc1ccc2c(c1)/C(=C/c1cc3ccccc3[nH]1)C(=O)N2 [Example 160, 5-Amino-3-(1H-indol-2-ylmethylene)-1,3-dihydro-indol-2-one] |
| > 20000 | 2.1 | 25100 | < 8 | O=C1Nc2ccc(C(=O)O)cc2/C1=C/c1cc2ccccc2[nH]1 [Example 161, 3-(-1H-Indol-2-ylmethylene)-2-oxo-2,3-dihydro-1H-indole-5-carboxylic acid] |

| Structure (SMILES) | IC50 [1] [nM] | IC50 (human flk-1) [µM] | IC50 (PDGFR-β) [nM] | IC50 (flkGST) [nM] |
| --- | --- | --- | --- | --- |
| COc1ccccc1-c1ccc2c(c1)NC(=O)/C2=C\c1[nH]c2c(c1CCC(=O)O)CCCC2 [Example 207, 3-{2-[6-(2-Methoxyphenyl)-2-oxo-1,2-dihydro-indol-3-ylidenemethyl]-4,5,6,7-tetrahydro-1H-indol-3-yl}-propionic acid] | 7700 | 2.72 | 870 | 1500 |
